According to patent US20250136563A1, “THIADIAZOLONE DERIVATIVES USEFUL AS AMPK ACTIVATOR” (Betagenon AB, priority 2021, published 2025):
“Also recorded” adds a separate entry of the source. Structures can show the parent of a compound that is named as a salt. Where two headings read alike, the source gives them in different places. Blank lines part the entries; values can stand above or below the molecule they belong to.

Assays:
[1] = Single dose oral pharmacokinetic study of Compounds 5, 6, 7, 9, 10, 13, 14, 16 and 17 in Sprague Dawley rats; type: in vivo
Description: 10.0 mL of 2% w/v methyl cellulose solution in phosphate buffer (pH 7.5) was added to a 100 mL conical flask along with 1 g of 2 mm glass beads. The solution was vigorously stirred on a magnetic stirrer. 100 mg of Compound 1 was slowly added to the solution, and the solution was vigorously stirred for approximately 1 h. The pH of the formulation was measured to be 7.49. Each formulation was freshly prepared prior to administration to the animals. The final concentration of Compound 1 in of the formulation was 10 mg/mL. The formulation was administered at 5 mL/kg body weight. […]
Adult healthy male Sprague Dawley rats aged 8 to 10 weeks were used for experimentation after a minimum three days of acclimatization. Fed state animals were administered the formulation of Compound 1 or Compound 3 orally via gavage at a dose of 50 mg/kg or 65 mg/kg body weight, respectively.
Under mild isoflurane anesthesia, blood specimens were collected by retro-orbital puncture method using capillary tubes into pre-labeled tubes containing anticoagulant (K2EDTA: 2 mg/mL blood) during the next 72 hours post-dosing, as detailed in Table 6. For blood sampling at multiple time points, the right and left eyes were used alternatively. Collected blood specimens were centrifuged at 6000 rpm, 4° C. for 10 minutes and the plasma samples were separated and stored at −80° C. until analysis.
Formulations were prepared in accordance with the method described in Example 19.
Doses equivalent to 50 mg/kg of Compound 1 were selected for comparison of equimolar doses.
The administration and blood sampling were performed as described in Example 19.
The results for the single dose oral pharmacokinetic study in rats are tabulated in Tables 7 and below and are shown graphically in FIG. 3. In Table 7, the Cmax, Tmax, AUClast, AUCinf, AUCextrap and T1/2 values are for 4-chloro-N-[2-[(4-chlorophenyl)methyl]-3-oxo-1,2,4-thiadiazol-5-yl]benzamide (Compound 1), which was detected following the administration of the compounds.

[2] = Stability in buffers pH 1.20, 7.40 and 9.20 (Examples 26 and 27)
Description: (§1) The stability of Compound 17 was assessed in buffers with pH 1.20, 7.40 and 9.20. The pH 1.20 study was conducted using an HCl buffer. A phosphate buffer was used for the pH 7.40 medium, and an alkaline borate buffer was used for the pH 9.20 medium.
(§2) HCl buffer—Potassium chloride (1.491 g) was dissolved in 100 mL of Ultrapure water type-1 to get 0.2 M KCl solution. About 50 mL of 0.2 M KCl was taken in a beaker and the pH was adjusted to 1.20 using 0.2 M HCl solution. The final volume was made up to 200 mL using Ultrapure water type-1 and stored at room temperature (22±3° C.).
(§3) Phosphate buffer—Potassium phosphate monobasic (2.722 g) was dissolved in 100 mL of Ultrapure water type-1 to get 0.2 M solution. About 50 mL of 0.2 M solution was taken in a beaker and the pH was adjusted to 7.40 using 0.2 M NaOH solution. The final volume was made up to 200 mL using Ultrapure water type-1 and stored at room temperature (22±3° C.).
(§4) Alkaline borate buffer—Boric acid (1.237 g) and potassium chloride (1.491 g) were dissolved in 100 mL of Ultrapure water type-1 to get 0.2 M solution. About 50 mL of 0.2 M solution was taken in beaker and the pH was adjusted to 9.20 using 0.2 M NaOH solution. The final volume was made up to 200 mL using Ultrapure water type-1 and stored at room temperature (22±3° C.).
(§5) 5 μM solutions of Compound 17 in each buffer were prepared with 5 mM DMSO stock solutions. The solutions were incubated at 22 t 3° C. for 120 minutes, with shaking at 400 rpm using a thermomixer.
(§6) After 0, 15, 30, 60 and 120 minute intervals, aliquots of sufficient volume of the compound solutions were taken, diluted and analysed to determine the stability of Compound 17 in each solution, as well as the amount of Compound 1 present. The amount of Compound 1 present was compared to the amount expected assuming full conversion of Compound 17 to Compound 1.
(§7) The stability of Compounds 3, 6, 9, 20 and 23 was tested using the same methods as described above for Compound 17.

[3] = for % remaining after 15 min / % remaining after 30 min: buffer; for % remaining after 15 min: 0.25 h; for % remaining after 30 min: 0.5 h
Description: as §1, §2, §3, §4, §5, §6, §7

[4] = mice; Das et al. 2019; cited from earlier work
[5] = Single dose oral pharmacokinetic study of Compounds 1 and 3 in Sprague Dawley rats; type: in vivo; settings: equimolar doses
Description: 10.0 mL of 2% w/v methyl cellulose solution in phosphate buffer (pH 7.5) was added to a 100 mL conical flask along with 1 g of 2 mm glass beads. The solution was vigorously stirred on a magnetic stirrer. 100 mg of Compound 1 was slowly added to the solution, and the solution was vigorously stirred for approximately 1 h. The pH of the formulation was measured to be 7.49. Each formulation was freshly prepared prior to administration to the animals. The final concentration of Compound 1 in of the formulation was 10 mg/mL. The formulation was administered at 5 mL/kg body weight.
6 mL of 2% w/v methyl cellulose solution in phosphate buffer (pH 7.5) was added to a 25 mL of conical flask together with 1 g of 2 mm glass beads. The solution was vigorously stirred on a magnetic stirrer. 78 mg of Compound 3 was slowly added to the solution, and the solution was vigorously stirred for approximately 1 h. The pH of the formulation was measured to be 7.41. […]
The results for the single dose oral pharmacokinetic study in rats are tabulated in Tables 5 and 6 below and are shown graphically in FIG. 2. In Table 5, the Cmax, Tmax, AUClast, AUCinf, AUCextrap, T1/2 and MRTlast values are for 4-chloro-N-[2-[(4-chlorophenyl)methyl]-3-oxo-1,2,4-thiadiazol-5-yl]benzamide (Compound 1), which was detected following the administration of both Compounds 1 and 3.

[6] = test system: AMPK; assay: Activation of AMPK: Western blot of p-T172 AMPKα in INS-1E insulinoma cells; type: cell-based; settings: for ratio between p-T172 AMPK and non-phosphorylated AMPK: INS-1E cells, 4 h, control 1.00
Description: INS-1E cells were cultivated as described in Steneberg et al., JCI Insight. 2018; 3(12):e99114. https://doi.org/10.1172/jci.insight.99114, using 5% instead of 10% fetal bovine serum when plated for treatment.
Compound 3 was dissolved at 10 mM in DMSO and frozen at −20° C.
The INS-1E cells were treated in serum free medium with increasing doses of Compound 3 for 4 hours in accordance with the methods described in Steneberg et al., JCI Insight. 2018; 3(12):e99114. https://doi.org/10.1172/jci.insight.99114.
Western blot analysis of the INS-1E cells was performed as described in Steneberg et. al., JCI Insight. 2018; 3(12):e99114. https://doi.org/10.1172/jci.insight.99114. The cell lysates were passed through a 30-gauge needle, ˜8-times and centrifuged for 10 min at +4° C. at 14000 rpm. Quantified values for AMPKα, and phosphorylated-T172 AMPKα, were normalized toward the quantified values for β-Actin.

[7] = Stability in HCl buffer (pH 1.20), 37° C.; type: physicochemical; settings: for % remaining compared to 0.0 min: HCl buffer pH 1.20, 37° C.
Description: 5 μM solutions of Compound 1 and Compound 4 (i.e. the citric acid salt of Compound 3) in HCl buffer (pH: 1.20) were prepared with 5 mM DMSO stock solutions.

[8] = analyte Compound 1 in plasma, oral, dose equivalent to 50 mg/kg of Compound 1

Plasma Concentration of Compound 1 ([1]; 0.00 h post-dose, oral, equivalent to 50 mg/kg of Compound 1): 0.00 µg/mL
Plasma Concentration of Compound 1 ([1]; 1.00 h post-dose): 76.70 µg/mL
Plasma Concentration of Compound 1 ([1]; 4.00 h post-dose): 106.37 µg/mL
Plasma Concentration of Compound 1 ([1]; 8.00 h post-dose): 100.53 µg/mL
Plasma Concentration of Compound 1 ([1]; 24.00 h post-dose): 26.77 µg/mL
AUCextrap [1, 8]: 17.81%
AUCinf [1, 8]: 2120.39 µg·h/mL
AUClast [1, 8]: 1745.15 µg·h/mL
Cmax [1, 8]: 114.03 µg/mL
T1/2 [1, 8]: 9.63 h
Tmax [1, 8]: 5.33 h
Molecule: 2-({[5-(4-chlorobenzamido)-2-[(4-chlorophenyl)methyl]-3-oxo-1,2,4-thiadiazolidin-4-yl]methoxy}carbonyl)-1-methylpyrrolidine [Compound 10]

% remaining after 15 min ([2]; buffer pH 1.2): 83%
% remaining after 30 min ([2]; buffer pH 1.2): 86%
% remaining after 15 min ([2]; buffer pH 7.4): 33%
% remaining after 30 min ([2]; buffer pH 7.4): 33%
Molecule: NCCCCC(N)C(=O)OCN1C(=O)N(Cc2ccc(Cl)cc2)SC1NC(=O)c1ccc(Cl)cc1.O=C(O)C(F)(F)F.O=C(O)C(F)(F)F (centres unmarked) [Compound 6, 6-{[5-(4-chlorobenzamido)-2-[(4-chlorophenyl)methyl]-3-oxo-1,2,4-thiadiazolidin-4-yl]methoxy}-6-oxohexane-1,5-bis(aminium) di-trifluoroacetate]

% remaining after 15 min ([3]; pH 1.2): 78%
% remaining after 15 min ([3]; pH 7.4): 0%
% remaining after 30 min ([3]; pH 1.2): 77%
% remaining after 30 min ([3]; pH 7.4): 0%
stability at pH 1.2 (in words) ([3]; pH 1.2): relatively stable
stability at pH 7.40 and above (in words) ([3]; pH 7.4): degrade rapidly
Molecule: [azaniumyl({[(4S)-4-azaniumyl-4-[(2-{[5-(4-chlorobenzamido)-2-[(4-chlorophenyl)methyl]-3-oxo-1,2,4-thiadiazolidin-4-yl]methoxy}-2-oxoethyl)carbamoyl]butyl]amino})methylidene]azanium Trichloride [Compound 23]

Molecule: CN(C)C(=N)N=C(N)N [metformin]
treating pain (in words) [4]: effective at treating pain

% remaining after 15 min ([2]; buffer pH 1.2): 100%
% remaining after 30 min ([2]; buffer pH 1.2): 100%
% remaining after 15 min ([2]; buffer pH 7.4): 46%
% remaining after 30 min ([2]; buffer pH 7.4): 13%
Molecule: NCC(=O)OCn1c(=O)n(Cc2ccc(Cl)cc2)s/c1=N\C(=O)c1ccc(Cl)cc1 [Compound 9, Trifluoroacetate]

increase in systemic exposure of Compound 1 after oral Compound 3 versus oral Compound 1 [5]: ten-fold
% remaining compared to 0.0 min ([7]; 0.0 min): 100.00%
% remaining compared to 0.0 min ([7]; 15 min): 96.92%
% remaining compared to 0.0 min ([7]; 30 min): 83.74%
% remaining compared to 0.0 min ([7]; 60 min): 86.54%
% remaining compared to 0.0 min ([7]; 120 min): 88.31%
stability in acidic solutions (in words) ([7]; pH 1.2): greater stability than Compound 1
% remaining after 15 min ([2]; buffer pH 1.2): 97%
% remaining after 30 min ([2]; buffer pH 1.2): 83%
% remaining after 15 min ([2]; buffer pH 7.4): 46%
% remaining after 30 min ([2]; buffer pH 7.4): 16%
Molecule: CN(C)CC(=O)OCn1c(=O)n(Cc2ccc(Cl)cc2)s/c1=N\C(=O)c1ccc(Cl)cc1 [Compound 3, Dimethylamino-Acetic Acid 5-[(Z)-4-chloro-benzoylimino]-2-(4-chloro-benzyl)-3-oxo-[1,2,4]thiadiazolidin-4-ylmethyl Ester]
ratio between p-T172 AMPK and non-phosphorylated AMPK ([6]; 1.25 μM): 1.24
ratio between p-T172 AMPK and non-phosphorylated AMPK ([6]; 2.5 μM): 2.24
ratio between p-T172 AMPK and non-phosphorylated AMPK ([6]; 5 μM): 5.99
phosphorylation of AMPK (in words) ([6]; cultured INS-1E cells): increases phosphorylation of AMPK in a dose-dependent manner; also recorded: increases phosphorylated-T172 AMPK in a dose-dependent manner

% remaining after 15 min ([2]; buffer pH 1.2): 76%
% remaining after 30 min ([2]; buffer pH 1.2): 82%
% remaining after 15 min ([2]; buffer pH 7.4): 0%
% remaining after 30 min ([2]; buffer pH 7.4): 0%
Percentage of Compound 17 remaining compared to 0 minutes ([2]; pH 1.20, 0.0 min): 100.00
Percentage of Compound 17 remaining compared to 0 minutes ([2]; pH 1.20, 15.0 min): 76.19
Percentage of Compound 17 remaining compared to 0 minutes ([2]; pH 1.20, 30.0 min): 82.37
Percentage of Compound 17 remaining compared to 0 minutes ([2]; pH 1.20, 60.0 min): 73.33
Percentage of Compound 17 remaining compared to 0 minutes ([2]; pH 1.20, 120.0 min): 79.04
Percentage of Compound 17 remaining compared to 0 minutes ([2]; pH 7.40, 0.0 min): 100.00
Percentage of Compound 17 remaining compared to 0 minutes ([2]; pH 7.40, 15.0 min): 0.13
Percentage of Compound 17 remaining compared to 0 minutes ([2]; pH 7.40, 30.0 min): 0.39
Percentage of Compound 17 remaining compared to 0 minutes ([2]; pH 7.40, 60.0 min): 0.47
Percentage of Compound 17 remaining compared to 0 minutes ([2]; pH 7.40, 120.0 min): 2.33
stability at pH 7.40 and above (in words) ([2]; pH 7.40 / higher pH, Trifluoroacetate): degrade rapidly; also recorded: very low
Percentage of Compound 17 remaining compared to 0 minutes ([2]; pH 9.20, 0.0 min): 100.00
Percentage of Compound 17 remaining compared to 0 minutes ([2]; pH 9.20, 15.0 min): 0.00
Percentage of Compound 17 remaining compared to 0 minutes ([2]; pH 9.20, 30.0 min): 0.00
Percentage of Compound 17 remaining compared to 0 minutes ([2]; pH 9.20, 60.0 min): 0.00
Percentage of Compound 17 remaining compared to 0 minutes ([2]; pH 9.20, 120.0 min): 0.00
Molecule: NC(CC(=O)O)C(=O)OCn1c(=O)n(Cc2ccc(Cl)cc2)s/c1=N/C(=O)c1ccc(Cl)cc1 (centres unmarked) [Compound 17, Trifluoroacetate]
stability at pH 1.2 (in words) ([2]; pH 1.2, Trifluoroacetate): greatest stability; also recorded: relatively stable

% remaining compared to 0.0 min ([7]; 0.0 min): 100.00%
% remaining compared to 0.0 min ([7]; 15 min): 71.32%
% remaining compared to 0.0 min ([7]; 30 min): 63.05%
% remaining compared to 0.0 min ([7]; 60 min): 58.77%
% remaining compared to 0.0 min ([7]; 120 min): 43.04%
Molecule: O=C(Nc1nc(=O)n(Cc2ccc(Cl)cc2)s1)c1ccc(Cl)cc1 [Compound 1, 4-chloro-N-[2-[(4-chlorophenyl)methyl]-3-oxo-1,2,4-thiadiazol-5-yl]benzamide, reference compound]
treating pain (in words) [4]: effective at treating pain
